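In this assay, cells in 96-well plates receive the compound at five concentrations for 48 hours. Endpoints are linearly interpolated between the surrounding concentrations. GI50 is the concentration that inhibits growth by half.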 Active and inactive are the calls of the source. Rule as the data show it: active = GI50 up to about 1.1 µM and inactive = higher.
What was measured:
Experiment in all cases: inhibition of tumour cell growth, NCI panel, 48 h
[1] = test system: NCI-H226
[2] = test system: SK-MEL-2
[3] = test system: SF-539
[4] = test system: M14
[5] = test system: SR
[6] = test system: HOP-62
[7] = test system: KM12
[8] = test system: HL-60
[9] = test system: SK-OV-3
[10] = test system: LXFL 529
[11] = test system: U-251
[12] = test system: SW-620
[13] = test system: HCT-15
[14] = test system: CCRF-CEM
[15] = test system: SN12C
[16] = test system: HT-29
[17] = test system: KM-20L2
[18] = test system: TK-10
[19] = test system: HOP-18
[20] = test system: NCI-H522
[21] = test system: CAKI-1
[22] = test system: SNB-19
[23] = test system: EKVX
[24] = test system: SK-MEL-5
[25] = test system: UO-31
[26] = test system: OVCAR-3
[27] = test system: SNB-75
[28] = test system: 786-0
[29] = test system: IGROV-1
[30] = test system: SF-268
[31] = test system: ACHN
[32] = test system: RPMI-8226
[33] = test system: SNB-78
[34] = test system: RXF 393
[35] = test system: K562
[36] = test system: DMS-114
[37] = test system: DMS-273
[38] = test system: HCT-116
[39] = test system: SK-MEL-28
[40] = test system: LOX IMVI
[41] = test system: OVCAR-5
[42] = test system: HOP-92
[43] = test system: UACC-257
[44] = test system: NCI-H23
[45] = test system: SF-295
[46] = test system: A549
[47] = test system: OVCAR-8
[48] = test system: M19-MEL
[49] = test system: NCI-H460
[50] = test system: MOLT-4
[51] = test system: DLD-1
[52] = test system: OVCAR-4
[53] = test system: UACC-62
[54] = test system: COLO 205
[55] = test system: XF498
[56] = test system: Malme-3M
[57] = test system: A498
[58] = test system: RXF 631
[59] = test system: HCC 2998

With `CC1=CC2CCC1(C)C/C2=C(/C)OC=O` (stereo not drawn) the GI50 [1] was > 100 µM (inactive), the GI50 [2] was > 100 µM (inactive) and the GI50 [3] was > 100 µM (inactive). The GI50 [4] was > 100 µM (inactive), the GI50 [5] was > 100 µM (inactive) and the GI50 [6] was > 100 µM (inactive). For the same molecule, the GI50 [7] was > 100 µM (inactive), the GI50 [8] was > 100 µM (inactive) and the GI50 [9] was > 100 µM (inactive). The GI50 [10] was > 100 µM (inactive), the GI50 [11] was > 100 µM (inactive) and the GI50 [12] was > 100 µM (inactive). The GI50 [13] was > 100 µM, the GI50 [14] was > 100 µM (inactive) and the GI50 [15] was > 100 µM (inactive). The GI50 [16] was > 100 µM (inactive), the GI50 [17] was > 100 µM (inactive) and the GI50 [18] was > 100 µM (inactive). For the same molecule, the GI50 [19] was > 100 µM (inactive), the GI50 [20] was > 100 µM (inactive) and the GI50 [21] was > 100 µM (inactive). The GI50 [22] was > 100 µM (inactive), the GI50 [23] was > 100 µM (inactive) and the GI50 [24] was > 100 µM (inactive). For the same molecule, the GI50 [25] was > 100 µM (inactive), the GI50 [26] was > 100 µM (inactive) and the GI50 [27] was > 100 µM (inactive). The GI50 [28] was > 100 µM (inactive), the GI50 [29] was > 100 µM (inactive) and the GI50 [30] was > 100 µM (inactive). The GI50 [31] was > 100 µM (inactive), the GI50 [32] was > 100 µM (inactive) and the GI50 [33] was > 100 µM (inactive). The GI50 [34] was > 100 µM (inactive), the GI50 [35] was > 100 µM (inactive) and the GI50 [36] was > 100 µM (inactive). The GI50 [37] was > 100 µM (inactive), the GI50 [38] was > 100 µM (inactive) and the GI50 [39] was > 100 µM (inactive). The GI50 [40] was > 100 µM (inactive), the GI50 [41] was > 100 µM (inactive) and the GI50 [42] was > 100 µM (inactive). The GI50 [43] was > 100 µM (inactive), the GI50 [44] was > 100 µM (inactive) and the GI50 [45] was > 100 µM (inactive). The GI50 [46] was > 100 µM (inactive), the GI50 [47] was > 100 µM (inactive) and the GI50 [48] was > 100 µM (inactive). The GI50 [49] was > 100 µM (inactive), the GI50 [50] was > 100 µM (inactive) and the GI50 [51] was > 100 µM (inactive). The GI50 [52] was > 100 µM (inactive), the GI50 [53] was > 100 µM (inactive) and the GI50 [54] was > 100 µM (inactive). The GI50 [55] was > 100 µM (inactive).
With `CCS[C@H]1NC(=O)C1[C@H](C)O[Si](C)(C)C(C)(C)C` (stereo partly drawn) the GI50 [2] was > 100 µM (inactive), the GI50 [3] was > 100 µM (inactive) and the GI50 [6] was > 100 µM (inactive). The GI50 [7] was > 100 µM (inactive), the GI50 [11] was > 100 µM (inactive) and the GI50 [12] was > 100 µM (inactive). For the same molecule, the GI50 [13] was > 100 µM, the GI50 [15] was > 100 µM (inactive) and the GI50 [56] was > 100 µM (inactive). The GI50 [16] was > 100 µM (inactive), the GI50 [17] was > 100 µM (inactive) and the GI50 [18] was > 100 µM (inactive). For the same molecule, the GI50 [19] was > 100 µM (inactive), the GI50 [21] was 74 µM (inactive) and the GI50 [22] was > 100 µM (inactive). The GI50 [23] was > 100 µM (inactive), the GI50 [26] was > 100 µM (inactive) and the GI50 [27] was > 100 µM (inactive). For the same molecule, the GI50 [28] was > 100 µM (inactive), the GI50 [29] was > 100 µM (inactive) and the GI50 [30] was > 100 µM (inactive). For the same molecule, the GI50 [31] was > 100 µM (inactive), the GI50 [32] was 31.6 µM (inactive) and the GI50 [33] was > 100 µM (inactive). The GI50 [34] was 52.8 µM (inactive), the GI50 [35] was 34.3 µM (inactive) and the GI50 [36] was 84.3 µM (inactive). The GI50 [37] was 97.7 µM (inactive), the GI50 [38] was 86.1 µM (inactive) and the GI50 [39] was > 100 µM (inactive). The GI50 [40] was 32.2 µM (inactive), the GI50 [41] was 75.5 µM (inactive) and the GI50 [42] was 79.8 µM (inactive). For the same molecule, the GI50 [43] was 48 µM (inactive), the GI50 [44] was > 100 µM (inactive) and the GI50 [45] was > 100 µM (inactive). For the same molecule, the GI50 [46] was 81.3 µM (inactive), the GI50 [47] was > 100 µM (inactive) and the GI50 [48] was > 100 µM (inactive). For the same molecule, the GI50 [49] was > 100 µM (inactive), the GI50 [51] was > 100 µM (inactive) and the GI50 [52] was > 100 µM (inactive). The GI50 [57] was > 100 µM (inactive), the GI50 [53] was > 100 µM (inactive) and the GI50 [54] was > 100 µM (inactive). The GI50 [55] was > 100 µM (inactive).
`CC[C@H]1CNC(=O)CC1CC(=O)OC` (stereo partly drawn) was tested, and the GI50 [1] was > 100 µM (inactive), the GI50 [2] was > 100 µM (inactive) and the GI50 [3] was > 100 µM (inactive). The GI50 [58] was > 100 µM (inactive), the GI50 [4] was > 100 µM (inactive) and the GI50 [5] was > 100 µM (inactive). For the same molecule, the GI50 [59] was > 100 µM (inactive), the GI50 [6] was > 100 µM (inactive) and the GI50 [7] was > 100 µM (inactive). The GI50 [9] was > 100 µM (inactive), the GI50 [11] was > 100 µM (inactive) and the GI50 [12] was > 100 µM (inactive). The GI50 [13] was > 100 µM, the GI50 [15] was > 100 µM (inactive) and the GI50 [56] was > 100 µM (inactive). For the same molecule, the GI50 [16] was > 100 µM (inactive), the GI50 [18] was > 100 µM (inactive) and the GI50 [20] was > 100 µM (inactive). The GI50 [21] was > 100 µM (inactive), the GI50 [22] was > 100 µM (inactive) and the GI50 [23] was > 100 µM (inactive). The GI50 [24] was > 100 µM (inactive), the GI50 [25] was > 100 µM (inactive) and the GI50 [27] was > 100 µM (inactive). For the same molecule, the GI50 [28] was > 100 µM (inactive), the GI50 [29] was > 100 µM (inactive) and the GI50 [30] was > 100 µM (inactive). For the same molecule, the GI50 [31] was > 100 µM (inactive), the GI50 [33] was > 100 µM (inactive) and the GI50 [34] was > 100 µM (inactive). The GI50 [36] was > 100 µM (inactive), the GI50 [37] was > 100 µM (inactive) and the GI50 [38] was > 100 µM (inactive). The GI50 [39] was > 100 µM (inactive), the GI50 [40] was > 100 µM (inactive) and the GI50 [41] was > 100 µM (inactive). For the same molecule, the GI50 [43] was > 100 µM (inactive), the GI50 [44] was > 100 µM (inactive) and the GI50 [45] was > 100 µM (inactive). For the same molecule, the GI50 [46] was > 100 µM (inactive), the GI50 [47] was > 100 µM (inactive) and the GI50 [49] was > 100 µM (inactive). The GI50 [50] was > 100 µM (inactive), the GI50 [51] was > 100 µM (inactive) and the GI50 [52] was > 100 µM (inactive). For the same molecule, the GI50 [57] was > 100 µM (inactive) and the GI50 [53] was > 100 µM (inactive).
